Entries after “also recorded” stand apart in the source; their conditions may differ. Like-named read-outs stand apart in the source and are kept apart here.

Data set [1] concerns HCC70 basal triple-negative breast cancer (TNBC) cell line. Description: Cytotoxicity, resazurin assay, 96 h, HCC70. It is filed as cell-based. The conditions noted are these: for IC50: 96 h, read-out: HCC70 (IC50 and SD); for Selectivity Index (SI) HCC70: IC50 in MCF12A / IC50 in HCC70. As to the method: (§1) The cytotoxicity and IC50 values of the isolated compounds were evaluated in three cell lines, namely, the HCC70 basal triple-negative breast cancer (TNBC) cell line (ATCC: CRL-2315), the hormone receptor-positive breast cancer MCF-7 cell line (ATCC: HTB-22) and the non-tumorigenic breast epithelial cell line MCF12A (ATCC: CRL-10782) using the resazurin assay. The cells were seeded at a density of 5000 cells/well in a 96-well plate and allowed to attach overnight at 37 °C and 9% CO2. The cells were then treated with DMSO as vehicle control (0.2% vM), paclitaxel (Sigma-Aldrich, St. Louis, USA) as a positive control (0.32 to 200 nm) and a six-point range concentration (0.32 to 200 μM) of the isolated pure compounds and incubated for 96 h at 37 DC in a humidified 9% CO2 incubator. Resazurin ([…]) was added to the cells, and the cells were incubated for 2–4 h at 37 °C in 9% CO2. Fluorescence readings were obtained on a Spectramax spectrophotometer (excitation and emission wavelength set to 560 nm and 590 nm, respectively). The experiment was performed in triplicate, and the data was analyzed using GraphPad Prism Inc., (Version 4, USA) with a half-maximal inhibitory concentration (IC50 values) determined by non-linear regression. A selectivity index (SI) was determined for each compound to determine its therapeutic significance in cancerous cells. It was calculated as follows: Selectivity index (SI) = IC50 of compound in MCF12A/IC50 of compound in cancer line
(§2) SI function is a crucial metric for assessing a compound’s potential safety, with values below 1 indicating toxicity and those above 10 implying high selectivity for further investigation.
In general terms: The colour change of resazurin is a common sign of viable cells or microbes.

Data set [2] has as its system hormone receptor-positive breast cancer MCF-7 cell line. Description: Cytotoxicity, resazurin assay, 96 h, MCF-7. It is filed as cell-based. To be noted: for IC50 / cytotoxic activity against MCF-7 (in words): MCF-7 cells; for IC50: 96 h, read-out: MCF-7 (IC50 and SD); for Selectivity Index (SI) MCF-7: IC50 in MCF12A / IC50 in MCF-7. The procedure:
as §1, §2

Data set [3] concerns non-tumorigenic breast epithelial cell line MCF12A. Description: Cytotoxicity, resazurin assay, 96 h, MCF-12A. The class given is cell-based. The conditions noted are these: MCF-12A cells; for IC50: 96 h, read-out: MCF-12A (IC50 and SD). The procedure:
as §1, §2

The test system of a further data set is NF-kappa B. The conditions noted are these: cited from earlier work.
Data set [4] concerns leukemic cell line (L1210). On the set-up: method as in PMID 12612427. The conditions noted are these: cited from earlier work.
Where [5] appears, read: Homo sapiens, HCC70, 96 h, HCC70 cells, resazurin, triplicate.
Where [6] appears, read: Homo sapiens, MCF7, 96 h, resazurin, triplicate.
The mark [7] stands for this setting: Homo sapiens, MCF-12A, resazurin, triplicate.
Setting [8] is: resazurin, triplicate, listed as 13R-Nepetaefolin (2).

Broadly, the IC50 is the concentration at which inhibition is half-maximal. With `CC(=O)O[C@@H]1C[C@@]2(CO2)[C@]2(CC[C@@]3(C=COC3)O2)[C@]23CCC[C@](C)(C(=O)OC2)[C@H]13` [Compound 1, 13S-nepetaefolin], the IC50 in data set [1] (setting [5]) was 24600 ± 1180 nM; in data set [2] (setting [6]), greater than 200000 nM; in data set [2] (resazurin, triplicate, listed as 13S-Nepetaefolin (1)) it was greater than 200000 nM; in data set [3] (setting [7]), 26600 ± 1320 nM. For the same molecule, the “Selectivity Index (SI) HCC70” value is recorded as 1.08 in data set [1] (listed as 13S-Nepetaefolin (1)) and 1.077 in data set [1] (listed as 13S-nepetaefolin (1)). Besides, the “Selectivity Index (SI) MCF-7” value in data set [2] is given as less than 0.132.
In the case of `CC(=O)O[C@@H]1C[C@@]2(CO2)[C@]2(CC[C@]3(C=COC3)O2)[C@]23CCC[C@](C)(C(=O)OC2)[C@H]13` [Compound 2, nepetaefolin], the “cytotoxic activity against HCC70 (in words)” value in data set [1] (HCC70 cells) was “no activity; also recorded: no such effects”. The IC50 was greater than 200000 nM in data set [1] (HCC70 cells, resazurin, triplicate, listed as 13R-Nepetaefolin (2)); greater than 200000 nM in data set [1] (setting [5]); greater than 200000 nM in data set [2] (setting [6]); greater than 200000 nM in data set [2] (setting [8]); greater than 200000 nM in data set [3] (setting [7]); greater than 200000 nM in data set [3] (setting [8]).
Turning to `CC(=O)O[C@@H]1C[C@@H](C)[C@](O)(CCc2ccoc2)[C@]23CCC[C@](C)(C(=O)OC2)[C@H]13` [Compound 3, dubiin], the IC50 in data set [1] (setting [5]) was 127900 ± 1230 nM; in data set [2] (setting [6]) it was greater than 200000 nM; in data set [3] (setting [7]), greater than 200000 nM. In data set [1] (listed as dubiin (3)), the “Selectivity Index (SI) HCC70” value came to 1.564. The “cytotoxic activity against MCF-7 (in words)” value in data set [2] is recorded as “non-toxic”. Besides, the “cytotoxic activity against MCF-12A (in words)” value in data set [3] was “non-toxic”.
For the molecule `CC(=O)O[C@@H]1C[C@@]2(CO2)[C@](O)(CCc2ccoc2)[C@]23CCC[C@](C)(C(=O)OC2)[C@H]13` [Compound 4, nepetaefuran], the results for the IC50 in data set [1] (setting [5]), in data set [2] (setting [6]) and in data set [3] (setting [7]) were 73700 ± 1100 nM, greater than 200000 nM and greater than 200000 nM, respectively. Further, the “Selectivity Index (SI) HCC70” value in data set [1] (listed as nepetaefuran (4)) came to 2.715. Besides, the “cytotoxic activity against MCF-7 (in words)” value in data set [2] was “no cytotoxic activity”. Also, the “cytotoxic activity against MCF-12A (in words)” value in data set [3] is “no cytotoxic activity”. Besides, the “anti-inflammatory activity, LPS pathway / NF-kappa B transactivation (in words)” value in the data set on NF-kappa B is recorded as “suppression of the transactivation of NF-kappa B”.
Consider `C[C@@]12CCC[C@]3(C)C(=O)O[C@H](C[C@@]4(CO4)[C@]1(O)CCc1ccoc1)[C@H]23` [Compound 5, leonotin], for which the “cytotoxic activity against leukemic cell lines (in words)” value in data set [4] is “cytotoxic activity”.
As to `CC(=O)O[C@H]1C(=O)[C@@]2(C)[C@H]([C@H](OC(=O)c3ccccc3)[C@]3(O)C[C@H](OC(=O)[C@H](O)[C@@H](NC(=O)c4ccccc4)c4ccccc4)C(C)=C1C3(C)C)[C@]1(OC(C)=O)CO[C@@H]1C[C@@H]2O` [Paclitaxel, paclitaxel, reference compound], the IC50 in data set [1] (Homo sapiens, HCC70, 96 h, HCC70 cells, positive control in nM) turned out to be 3.92 ± 1.03 nM; in data set [2] (Homo sapiens, MCF7, 96 h, positive control in nM), 2.41 ± 1.11 nM; in data set [3] (Homo sapiens, MCF-12A, positive control in nM), 16.2 ± 1.08 nM. Also, in data set [1], the “Selectivity Index (SI) HCC70” value is reported as 4.12. Further, the “Selectivity Index (SI) MCF-7” value in data set [2] was 6.71.
leonotinin [Compound 6]: the IC50 in data set [1] (HCC70 cells, resazurin, triplicate) is 94900 ± 1100 nM; in data set [2] (resazurin, triplicate) it was greater than 200000 nM; in data set [3] (resazurin, triplicate), greater than 200000 nM. Also, the “Selectivity Index (SI) HCC70” value in data set [1] (listed as leonotinin (6)) is 2.108. Also, the “cytotoxic activity against MCF-7 (in words)” value in data set [2] is reported as “no cytotoxic activity”. Moreover, the “cytotoxic activity against MCF-12A (in words)” value in data set [3] was “no cytotoxic activity”. The “cytotoxic activity against leukemic cell lines (in words)” value in data set [4] is listed as “cytotoxic activity”. Also, the “anti-inflammatory activity, LPS pathway / NF-kappa B transactivation (in words)” value in the data set on NF-kappa B was “suppression of the transactivation of NF-kappa B”.

Values taken from publication PMC12110735 (Diseases, 2025).
